Laboratory results reported in PMC6349357, “Computational and experimental analysis of bioactive peptide linear motifs in the integrin adhesome” (PLoS ONE, 2019).
Marks after values point to notes of the source that are not given here.

Key:
[1] = tested on: TRAP-activated platelets; assay: Inhibition of TRAP-induced platelet aggregation after pre-incubation with peptide; type: cell-based, human (healthy volunteers); details: for Aggregation after TRAP, peptide alone 1x (A 1x / B 1x) / Aggregation after TRAP, peptide alone 2x (A 2x / B 2x): TRAP 2 μM after 6 minutes pre-incubation, mean n = 3; for Aggregation after TRAP, peptide alone 1x (A 1x / B 1x): 4 μM pal-peptides, 10 μM tat-peptides; for Aggregation after TRAP, peptide alone 2x (A 2x / B 2x): double concentration of 4 μM (pal) / 10 μM (tat); for Aggregation after TRAP activation, donor h: replicate donor h; for Aggregation after TRAP activation, donor h / Aggregation after TRAP activation, donor i / Aggregation after TRAP activation, donor j / Aggregation after TRAP activation, donor d / Aggregation after TRAP activation, donor f / Aggregation after TRAP activation, donor g: pal 20 μM, tat 50 μM; for Aggregation after TRAP activation, donor i: replicate donor i; for Aggregation after TRAP activation, donor j: replicate donor j; for Aggregation after TRAP activation, donor d: replicate donor d; for Aggregation after TRAP activation, donor f: replicate donor f; for Aggregation after TRAP activation, donor g: replicate donor g
Outline: (§1)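 Aggregation was read by optical density at 37°C under 1100 rpm stirring. Samples were 3x10^5/μl washed human platelets, rested 45 min and supplemented with 1.8 mM calcium chloride. Peptide went in at 2 min, followed 6 min later by TRAP at an experiment-dependent concentration, with 7 min further recording.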

[2] = tested on: tyrosine phosphorylation in platelets; assay: Phosphotyrosine western blot (4G10) of platelets treated with peptide; type: cell-based, human (healthy volunteers); parameters: key to Phospho: R: in resting platelets; A: after TRAP activation; details: for Phospho: phosphorylation changes associated with peptide treatment, pal 20 μM, tat 50 μM, TRAP 4 μM
Description: A platelet concentration of 3x10^5 /μl was used when performing standard aggregations and a concentration of 1x10^6 /μl was used for sample preparation for western blot analysis. The extent of platelet aggregation was measured by quantifying the optical density of the samples using the Bio-Data PAP-8 aggregometer (platelet aggregation profiler, Horsham, PA, USA). A temperature of 37°C was maintained and samples were stirred using magnets spinning at 1100 rpm. 200 μl of washed platelets was added to each aggregation tube. Different volumes of buffer, peptide and TRAP were added to achieve the desired concentrations. Peptide/buffer was added to each well after two minutes. TRAP, with a final concentration depending on the experiment, was added 6 minutes later and data was collected for an additional 7 minutes.
After the aggregation step, tubes were immediately placed on ice. 27 μl of lysis buffer was then added and the tube was vortexed vigorously. Lysates were left on ice for one hour and vortexed frequently. Proteins were then centrifuged at 14,000 rcf for 10 minutes to remove debris. Samples were then mixed with 2x sample buffer. 50 μl each sample was added to 50 μl of sample buffer. The protein was then denatured by heating to 95°C for 5 minutes. 10 μl of lysate was kept for protein quantification. All samples and lysates were frozen at -80°C.
The Bradford assay was then performed on the lysates to determine protein concentration. Protein concentrations were measured using the Bio-Rad DC Protein Assay. A calibration was created using samples containing a known concentration of bovine serum albumin. These were prepared in advance by sequential dilutions with final concentrations of 1.5mg/ml, 1mg/ml, 0.8mg/ml, 0.6mg/ml, 0.4mg/ml, 0.2mg/ml, 0mg/ml. Samples were then dispensed into a 96 well plate and the Bio-Rad DC reagents were added as described in the protocol. Samples were left to rest for 15 minutes and were then read using 690 0.15 mode on the Wallac plate reader. A standard curve was calculated from the standard samples of known concentration and the y = ax+b equation was used to determine the concentration of the other samples.
Sodium Dodecyl Sulfate Polyacrylamide Gel Electrophoresis (SDS-PAGE) was performed to separate proteins by molecular weight. Polyacrylamide gels were prepared (see Reagents section). Samples or molecular markers were loaded in volumes to give 20 μg of protein. The gels were then run for approximately 80 minutes or until the samples reached the end of the gel. The proteins were then transferred to polyvinylidene difluoride (PVDF) membranes using a Bio-Rad Wet Blot Transfer Cell apparatus. During the transfer the membranes were submerged in 1x transfer buffer (10% 10x transfer buffer, 70% deionised water and 20% methanol). Transfer was performed either overnight at 40 volts at 4°C, or at 100 volts for 1 hour cooled with an ice block. After the transfer the membranes were blocked for 1 hour using 3% bovine albumin serum (BSA) dissolved in TBS-T. Membranes were incubated with 4G10 antibody with a 1:1000 dilution. Unbound primary antibody was washed off with TBS-T three times for 5 minutes each. Membranes were then incubated with anti-mouse IgG secondary antibody (Millipore) with a dilution of 1:30,000. Membranes were submerged in chemiluminescence ECL solution (Thermo Scientific). They were then measured using the western blot developer UVP. One image was taken every 80 seconds for 40 minutes. Numeric data was extracted from selected blots using ImageJ.

[3] = tested on: resting platelets; assay: Platelet aggregation induced by peptide in resting washed platelets (activation); type: cell-based, human (healthy volunteers); details: for Activation, 5μM / Activation, 20μM: S3 Table, n=3; for Activation, 5μM: peptide 5 μM; for Activation, 20μM: peptide 20 μM; for Activation: platelet aggregation in resting platelets after 6 minutes incubation with peptide, pal-peptides 20 μM, tat-peptides 50 μM, optical density, aggregometer, mean, n>=3; for Aggregation before TRAP activation, donor h: replicate donor h; for Aggregation before TRAP activation, donor h / Aggregation before TRAP activation, donor i / Aggregation before TRAP activation, donor j / Aggregation before TRAP activation, donor d / Aggregation before TRAP activation, donor f / Aggregation before TRAP activation, donor g: pal 20 μM, tat 50 μM; for Aggregation before TRAP activation, donor i: replicate donor i; for Aggregation before TRAP activation, donor j: replicate donor j; for Aggregation before TRAP activation, donor d: replicate donor d; for Aggregation before TRAP activation, donor f: replicate donor f; for Aggregation before TRAP activation, donor g: replicate donor g
Outline: as §1

[4] = type: physicochemical
Description: Peptides were stored in powder form at -80°C. Prior to use, they were left at room temperature for one hour. They were then mixed with a specific volume of deionised water to bring them to a 1mM concentration and were then aliquoted and frozen at -80°C. They were thawed a single time before use and discarded after an experiment. Peptides which were not soluble in deionised water (pal-APTNEFYA, pal-LEEDDEEGE, pal-TNITYRGT and pal-KLLITIHDRKE) were dissolved in a 10% DMSO and 90% deionised water solution (leading to a final concentration of 0.2% DMSO when combined with platelets, see below). These peptides were further diluted during platelet aggregations.

[5] = S3 Table, peptide 5 μM, aggregation after TRAP, n=3
[6] = S3 Table, peptide 20 μM, aggregation after TRAP, n=3
[7] = platelet aggregation induced by 4 μM TRAP in platelets pre-incubated with peptide (low value = inhibition), pal-peptides 20 μM, tat-peptides 50 μM, mean, n>=3

Substance	Platelet aggregation remaining after TRAP (low = inhibition) [1, 5]	Platelet aggregation remaining after TRAP (low = inhibition) [1, 6]	Aggregation after TRAP, peptide alone 1x (A 1x / B 1x) [1]	Aggregation after TRAP, peptide alone 2x (A 2x / B 2x) [1]	Platelet aggregation remaining after TRAP (low = inhibition) [1, 7]	Aggregation after TRAP activation, donor h ([1]; TRAP 4 μM)	Aggregation after TRAP activation, donor i ([1]; TRAP 4 μM)	Aggregation after TRAP activation, donor j ([1]; TRAP 4 μM)	Phospho [2]	Aggregation before TRAP activation, donor h [3]	Aggregation before TRAP activation, donor i [3]	Aggregation before TRAP activation, donor j [3]	Activation ([3]; unit assumed) [%]	Aggregation after TRAP activation, donor d ([1]; TRAP 4 μM)	Aggregation after TRAP activation, donor f ([1]; TRAP 4 μM)	Aggregation after TRAP activation, donor g ([1]; TRAP 4 μM)	Aggregation before TRAP activation, donor d [3]	Aggregation before TRAP activation, donor f [3]	Aggregation before TRAP activation, donor g [3]	Solubility in deionised water [4]	other results
pal-KVGFFKR-(NH2) [pal-ITGA2B_JM, N-terminally palmitylated ITGA2B juxtamembrane peptide KVGFFKR]	73	69	37.33	49.33	50	52	36	64	R	30	11	12	–	–	–	–	–	–	–	–	Activation, 5μM ([3]; unit assumed): 66%; Activation, 20μM ([3]; unit assumed): 62%; Activation [3]: 17 ^*
TLELDRLMASLSDFRVQNHLP-tat-(NH2) [TGFB1I1_LD-tat, TGFB1I1 LD motif peptide with C-terminal tat]	–	–	67.33	65.67	66	74	59	67	R	3	4	4	3	–	–	–	–	–	–	–	–
pal-KLLITIHDRKE-(NH2) [pal-ITGB3_JM, N-terminally palmitylated ITGB3 juxtamembrane peptide]	–	–	–	–	73	–	–	–	–	–	–	–	4	76	77	68	4	3	5	not soluble	–
tat-DPMSSTYIEELGKREVTIPPKYRELLA-(NH2) [tat-CAST_1, tat peptide from calpastatin (CAST)]	–	–	70.33	70.67	72	77	63	76	A	4	4	3	3	–	–	–	–	–	–	–	Phosphotyrosine blot density, peptide + TRAP, Average ([2]; average of 3 replicates, tat peptide 50 µM, TRAP 4 µM): 64.53; Phosphorylation in resting platelets ([2]; in words): no effect; Phosphorylation intensity of TRAP activated platelets ([2]; in words, p = 0.03): increased the phosphorylation intensity; relative density (peptide lane to activated control), replicate 1 ([2]; replicate 1): 4.12; Phosphotyrosine blot density, peptide + TRAP, replicate 1 ([2]; replicate 1, tat peptide 50 µM, TRAP 4 µM): 80; relative density (peptide lane to activated control), replicate 2 ([2]; replicate 2): 1.42; Phosphotyrosine blot density, peptide + TRAP, replicate 2 ([2]; replicate 2, tat peptide 50 µM, TRAP 4 µM): 58.7; relative density (peptide lane to activated control), replicate 3 ([2]; replicate 3): 1.22; Phosphotyrosine blot density, peptide + TRAP, replicate 3 ([2]; replicate 3, tat peptide 50 µM, TRAP 4 µM): 54.9
pal-LEEDDEEGE [pal-ITGA2B_tail, N-terminally palmitylated ITGA2B tail peptide]	–	–	65.67	66	52	–	–	–	–	–	–	–	2	74	76	4	2	3	2	not soluble	–
pal-APTNEFYA [pal-SDC4_tail, N-terminally palmitylated syndecan-4 tail peptide]	61	34	27.67	24.67	–	–	–	–	–	–	–	–	7	9	54	41	2	4	15	not soluble	Aggregation (inhibition effects of syndecan-derived peptides) ([1]; S2 Table A, peptide 20 μM, TRAP 4 μM, mean, n=6): 34; Summary of effects of SDC4-derived palmitylated peptides and scrambled controls, 20μM ([1]; S2 Table B / S2 Fig, 20 μM, activation of resting platelets and inhibition of aggregation induced by 4 μM TRAP, in words): Inhibitor; Platelet aggregation after TRAP activation [1, 7]: 34 ^*; Inhibition, donor 14_06_13 ([1]; replicate 14_06_13, peptide 20 μM, TRAP 4 μM): 40; Inhibition, donor 18_06_13 ([1]; replicate 18_06_13, peptide 20 μM, TRAP 4 μM): 67; Inhibition, donor 20_06_13 ([1]; replicate 20_06_13, peptide 20 μM, TRAP 4 μM): 51; Inhibition, donor 20_08_13 ([1]; replicate 20_08_13, peptide 20 μM, TRAP 4 μM): 11; Platelet aggregation remaining after TRAP (low = inhibition) ([1]; replicate 22_08_13_DONOR1, peptide 20 μM, TRAP 4 μM): 6; Platelet aggregation remaining after TRAP (low = inhibition) ([1]; replicate 22_08_13_DONOR2, peptide 20 μM, TRAP 4 μM): 34; Activation, 5μM ([3]; unit assumed): 2%; Activation, 20μM ([3]; unit assumed): 2%; Activation, donor 14 06 13 ([3]; replicate 14_06_13, SDC4 peptides and controls, 20 μM, unit assumed): 2%; Activation, donor 18_06_13 ([3]; replicate 18_06_13, SDC4 peptides and controls, 20 μM, in % (unit assumed)): 3; Activation, donor 20_06_13 ([3]; replicate 20_06_13, SDC4 peptides and controls, 20 μM, in % (unit assumed)): 2; Activation, donor 20 08 13 ([3]; replicate 20_08_13, SDC4 peptides and controls, 20 μM, unit assumed): 5%; Activation, donor 22_08_13_DONOR1 ([3]; replicate 22_08_13_DONOR1, SDC4 peptides and controls, 20 μM): 2; Activation, donor 22_08_13_DONOR2 ([3]; replicate 22_08_13_DONOR2, SDC4 peptides and controls, 20 μM): 2
